This note sets out measurements from patent US7648959B2, “Methods and compositions for the treatment of diseases of the eye” (Merck Patent GmbH, priority 2000, dated 2010).

The structures appear in SMILES notation. “And” between values parts separate entries of the source, which are not always exact repeats. Equal values may be shown once.

The subject of the experiment is bFGF-Stimulated Corneal Angiogenesis. Nature of the experiment: rabbit corneal micropocket model, paralimbal intrascleral injection. Format: in vivo. The conditions noted are these: for Area of neovascularisation, MEAN / Area of neovascularisation (individual eye): single (Day 0) intrascleral injection, 100 μl, 2.0 mg/ml in PBS; for Area of neovascularisation, MEAN: mean of 12 eyes; for Area of neovascularisation (individual eye): one value per rabbit eye (R/L); for neovascularisation inhibited compared to the animal group receiving PBS only: single intrascleral injection 100 μl, 2.0 mg/ml, p<0.01. As for the experimental part:
(1996). In this model angiogenesis is stimulated by implantation of Hydron pellets containing an angiogenesis stimulating cytokine like, for example, fibroblast growth factor (FGF) or vascular endothelial growth factor (VEGF) into the cornea. After implantation the active compound to be tested is administered by paralimbal intrascleral injection. Effect on neovascularisation is measured after predetermined time intervals by visual examination using a microscope, photographing and computer-assisted quantification of photographs.
The effect of intrascleral application of an αvβ3 and/or αvβ5 inhibitor was examined in rabbit corneal micropocket model as described by Shaffer R. W. (see above). As an example for an αvβ3 and/or αvβ5 inhibitor (2S)-2-(2,2-dimethylpropyloxycarboxamido)-3-{3,4-dihydro-2-[N-(2-imidazolyl)carbamoylethyl]-(2S)-2H-1,4-benzoxazin-3-on-6-yl}propionic acid was used in the experiment. For induction of angiogenesis Hydron pellets containing basic fibroblast growth factor (bFGF) were used. Preparation of bFGF containing implants was performed by casting Hydron [poly(hydroxyethyl)methacrylate] in specially prepared Teflon pegs that have a 5 mm core drilled into their surfaces. Approximately 12 μl of casting material was placed into each peg and polymerized overnight in a sterile hood, then sterilized by ultraviolet irradiation.
The experiment consisted of 12 animals; in each eye of the animals one individual pellet was implanted into a surgically created “pocket” in the mid stroma of the rabbit cornea. The surgical procedure was done under sterile technique using a Wild model M691 operating microscope equipped with a beamsplitter and camera for photographically recording individual corneas. A 69 Beaver blade was used to create a 3 mm by 5 mm “pocket” to a depth of half the corneal thickness. The stroma was dissected peripherally using an spatula and the pellet implanted with its peripheral margin 2 mm from limbus. Immediately after implantation of bFGF-containing Hydron pellets 6 of the 12 animals received in each eye 100 μl of a drug solution consisting of 2.0 mg/ml (2S)-2-(2,2-dimethylpropyloxycarboxamido)-3-3,4-dihydro-2-[N-(2-imidazolyl)carbamoylethyl]-(2S)-2H-1,4-benzoxazin-3-on-6-yl}propionic acid solubilized in phosphate buffered saline (PBS) by paralimbal intrascleral injection. For comparison the same procedure was performed in the other 6 animals using PBS only. Following implantation the eyes were photographed and the area of neovascularisation measured after predetermined intervals.

On to `CC(C)(C)COC(=O)N[C@@H](Cc1ccc2c(c1)NC(=O)[C@H](CCC(=O)Nc1ncc[nH]1)O2)C(=O)O` [(2S)-2-(2,2-dimethylpropyloxycarboxamido)-3-{3,4-dihydro-2-[N-(2-imidazolyl)carbamoylethyl]-(2S)-2H-1,4-benzoxazin-3-on-6-yl}propionic acid], for which the “Area of neovascularisation, MEAN” value is, setting by setting: (5 Day Post-Implantation) 8.39 mm^2; (7 Day Post-Implantation) 10.32 mm^2. Also, the “Area of neovascularisation (individual eye)” value is, setting by setting: (5 Day Post-Implantation) 3.47 mm^2 and 26.79 mm^2 and 14.76 mm^2 and 7.70 mm^2 and 1.00 mm^2 and 0.88 mm^2 and 8.19 mm^2 and 2.26 mm^2 and 0.0 mm^2 and 7.31 mm^2 and 15.85 mm^2 and 12.45 mm^2; (7 Day Post-Implantation) 6.69 mm^2 and 27.96 mm^2 and 15.58 mm^2 and 11.32 mm^2 and 2.09 mm^2 and 1.91 mm^2 and 11.93 mm^2 and 3.51 mm^2 and 0.0 mm^2 and 11.56 mm^2 and 16.90 mm^2 and 14.40 mm^2. In addition, the “neovascularisation inhibited compared to the animal group receiving PBS only” value is, setting by setting: (5 days post implantation) 56.5%; (7 days post implantation) 52.3%.
